Experimental data: PubChem BioAssay AID1053191 (Broad Institute, 2014)
Inconclusive results are not listed. Calls of active or inactive are those of the source.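 The calls were made as follows: active = compounds whose fitted half-maximal potency for killing cells lies within twice their highest tested dose; inconclusive = flat curve with 30 to 70% signal loss, or poor fit; inactive = the rest.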

test system: HEK293T viability, ATP luminescence, 72 h; assay: cytotoxicity in HEK293 cells, dose response, cytotoxicity control, cell-based, dry powder samples (AID 1053191); conditions: not given

Compound	AC50
O=C(c1c(F)cccc1F)N(Cc1ccccc1)Cc1ccccc1	50 µM

test system: not listed separately; assay: as above; conditions: HEK293T viability, ATP luminescence, 72 h; at 50 µM (top of the series)

Compound	activity change, negative = cytotoxic
Cc1ccc(S(=O)(=O)NCc2ccc3c(c2)cc(C)n3C)cc1	-7.83% (inactive)
CNc1ccccc1C(C)(C)c1cc(-c2cccc(OC)c2)no1	-41.9% (inactive)
CCc1ccc(-n2c(=S)sc3c(=O)n(-c4ccccc4C)c(SCC(=O)O)nc32)cc1	12.6% (inactive)
COc1ccc(Nc2ccccc2N)cc1	-11.7% (inactive)
COc1cc(CC2C(=O)Nc3ccccc32)cc(C)c1O (centres undefined)	-16.6% (inactive)
O=C(O)C1CCN(c2nc(-c3ccccc3)c3cc(Br)ccc3n2)CC1	13.4% (inactive)
CCc1cccc2c1NC1(CCCC1)CC2C (centres undefined)	-4.91% (inactive)
OCc1ccc(-c2nn(Cc3ccccc3)c3ccccc23)o1	4.83% (inactive)
Cc1cc(C)c(S(=O)(=O)NCCn2c(C)cc3ccccc32)c(C)c1	-16.1% (inactive)
Cc1cc2cc(CNC(=O)Nc3ccc(Cl)c(Cl)c3)ccc2n1C	-15.7% (inactive)
Cc1ccc(CSc2nc3[nH]ncc3c(=O)[nH]2)cc1	-29.4% (inactive)
Cc1cccc(NC(=O)NCc2ccc3c(c2)cc(C)n3C)c1	-22.6% (inactive)
Cc1cc2ccccc2n1CCNC(=O)COc1ccc2ccccc2c1	-12.6% (inactive)
